Test results taken from the supplement of paper PMC10307832.

Tests used:
Experiment in all cases: relative viability (nuclei count vs DMSO), 5 days (fraction); higher = more cells survive
[1] = compound: CN1CCN(CC1)C2=CC(=C(C=C2)NC3=NC=C4C(=N3)N(C5=CC=CC=C5C(=O)N4C)C)OC [XMD8-85] + Cc1nc(NC(=O)N2CCC[C@H]2C(N)=O)sc1-c1ccnc(C(C)(C)C(F)(F)F)c1 [Alpelisib] (partner 2 µM)
Method in brief: (§1)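 Lung cancer cell lines were seeded in 1536-well plates and dosed by pin tool the next day, with either a single drug or a fixed anchor-drug dose combined with five library-drug doses (not always all listed) spaced in √10 steps. Five days later, one step fixed the cells and stained their nuclei (final 0.05% Triton X-100, 1% formaldehyde, 1 ug/ml Hoechst), and nuclei were counted on 4× images. Relative viability is the nuclei count in treated wells divided by the count in vehicle wells, and each value is the median of duplicate plates.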

[2] = compound: O=C(O)C(Cc1ccccc1[N+](=O)[O-])=NNc1nc(-c2ccc(Cl)c(Cl)c2)cs1 (mixture of isomers) [4EGI-1] + Nc1nc2[nH]cc(CCc3ccc(C(=O)N[C@@H](CCC(=O)O)C(=O)O)cc3)c2c(=O)[nH]1 [Pemetrexed] (partner 0.2 µM)
Method in brief: as §1

[3] = compound: CN1CCN(CC1)C2=CC(=C(C=C2)NC3=NC=C4C(=N3)N(C5=CC=CC=C5C(=O)N4C)C)OC [XMD8-85]
Method in brief: (§2)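 Lung cancer cell lines received five library-drug doses (not always all listed) spaced by √10, pinned on vehicle-anchored 1536-well plates after an overnight stay at 37 °C. Five days later, with no medium change, nuclei were Hoechst-stained, imaged at 4× and counted with MetaXpress. Viability is treated-well nuclei relative to vehicle-well nuclei, as a median across plates. Passing plates had control CV below 25% and at least one doubling.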

[4] = compound: O=C(O)C(Cc1ccccc1[N+](=O)[O-])=NNc1nc(-c2ccc(Cl)c(Cl)c2)cs1 (mixture of isomers) [4EGI-1]
Method in brief: as §2

| Cell Line | relative viability ([1]; first compound 0.08 µM) | relative viability ([1]; first compound 0.253 µM) | relative viability ([1]; first compound 0.8 µM) | relative viability ([1]; first compound 2.53 µM) | relative viability ([1]; first compound 8 µM) | relative viability ([2]; first compound 0.5 µM) | relative viability ([2]; first compound 1.581 µM) | relative viability ([2]; first compound 5 µM) | relative viability ([2]; first compound 15.81 µM) | relative viability ([2]; first compound 50 µM) | relative viability ([3]; 0.08 µM) | relative viability ([3]; 0.253 µM) | relative viability ([3]; 0.8 µM) | relative viability ([3]; 2.53 µM) | relative viability ([3]; 8 µM) | relative viability ([4]; 0.5 µM) | relative viability ([4]; 1.581 µM) | relative viability ([4]; 5 µM) | relative viability ([4]; 15.81 µM) | relative viability ([4]; 50 µM) |
| --- | --- | --- | --- | --- | --- | --- | --- | --- | --- | --- | --- | --- | --- | --- | --- | --- | --- | --- | --- | --- |
| NCI-H1437 | 0.914 | 0.992 | 1.07 | 0.753 | 0.515 | 0.335 | 0.312 | 0.313 | 0.271 | 0.191 | 1 | 1.01 | 1.01 | 0.99 | 0.747 | 1.04 | 0.969 | 0.947 | 0.592 | 0.326 |
| LU99A | 0.383 | 0.531 | 0.544 | 0.61 | 0.431 | 0.177 | 0.179 | 0.166 | 0.248 | 0.154 | 0.895 | 1 | 1 | 0.973 | 0.831 | 0.989 | 0.859 | 0.999 | 0.885 | 0.564 |
| NCI-H2347 | 1.03 | 1.06 | 1.03 | 1 | 0.801 | 0.438 | 0.407 | 0.452 | 0.414 | 0.413 | 1.03 | 0.973 | 1.04 | 1.03 | 0.809 | 1.14 | 0.965 | 1.02 | 1.03 | 0.823 |
| EKVX | 0.776 | 0.996 | 0.935 | 0.986 | 0.899 | 0.418 | – | 0.407 | 0.325 | 0.368 | 0.966 | 1.05 | 1.02 | 1.19 | 0.863 | 1.05 | 0.746 | 1.04 | 0.698 | 0.859 |
| H3255 | 0.586 | 0.745 | 0.68 | 0.776 | 0.406 | 0.598 | 0.574 | 0.524 | 0.453 | 0.395 | 1.1 | 0.929 | 0.882 | 0.916 | 0.674 | 1.1 | 0.784 | 1.01 | 0.801 | 0.981 |
| NCI-H1793 | 0.914 | 0.769 | 0.666 | 0.851 | 0.668 | 1.09 | 0.905 | 1.1 | 0.659 | 0.304 | 0.82 | 0.906 | 0.938 | 1.2 | 0.825 | 1.05 | 0.95 | 1.31 | 0.765 | 0.439 |
| NCI-H647 | 0.837 | 1.18 | 1.22 | 1.35 | 0.734 | 0.198 | 0.179 | 0.206 | 0.156 | 0.087 | 0.991 | 0.912 | 1.01 | 1.06 | 0.758 | 1.01 | – | 1.1 | 0.855 | 0.446 |
| COR-L23 | 0.882 | 0.887 | 0.742 | 0.712 | 0.506 | 0.223 | 0.189 | 0.194 | 0.204 | 0.215 | 1.11 | 1.07 | 1.06 | 1.12 | 0.886 | 1.08 | 0.859 | 1.11 | 0.771 | 0.155 |
| NCI-H1915 | 1.08 | 1.09 | 1.07 | 1.05 | 0.962 | 0.513 | 0.407 | 0.451 | 0.488 | 0.263 | 0.975 | 1 | 1.01 | 1.03 | 0.883 | 1.02 | 0.738 | 1.05 | 0.972 | 0.633 |
| NCI-H2126 | 0.628 | 0.767 | 0.814 | 0.776 | 0.724 | 0.793 | 0.712 | 0.681 | 0.596 | 0.537 | 0.96 | 1.02 | 1.03 | 1.11 | 0.821 | 1.05 | 0.937 | 1.05 | 0.837 | 0.79 |
| NCI-H2087 | 1.18 | 1.05 | 1.21 | 1.35 | 0.808 | 0.651 | 0.648 | 0.637 | 0.637 | 0.481 | 1.07 | 0.984 | 1.09 | 1.05 | 0.811 | 1.24 | 1.05 | 0.975 | 0.694 | 0.256 |
| LC-2-ad | 0.893 | 0.832 | 0.888 | 0.735 | – | 0.301 | 0.28 | 0.287 | 0.258 | 0.257 | 1.02 | 0.987 | 1.03 | 0.925 | 0.498 | 1.06 | 0.716 | 0.969 | 0.526 | 0.248 |
